We go through one substance from patent EP1658093B1, “USE OF A MIXTURE CONTAINING OXYTOCIN AND TESTOSTERON OR ESTRADIOL FOR TREATING DISTURBANCES OF PSYCHOSOCIAL EXPERIENCES AND BEHAVIOUR” (Beier, Klaus M., priority 2003, dated 2007).

Experiment [1] can be described thus: Double-blind study: psychophysiological reaction patterns (SMARD-Watch), dynamic cross-correlation analysis. The class given is in vivo. The following applies: mean over all 4 Probanden; Oxytocin nasal 4 or 8 I.E.; sex hormone as dermal patch (Estradiol in men, Testosteron in women); low coefficient = balanced sympathetic/parasympathetic regulation. As for the experimental part:
(§1) Untersucht wurden 4 Probanden, zwei heterosexuelle Paare mit jeweils mehr als 20jähriger Partnerschaftsdauer. In einer Doppelblindstudie wurden Oxytocin gegen Placebo, die Kombinationen Oxytocin/Estradiol an Männern und Oxytocin/Testosteron an Frauen gegen Placebo und gegen den "Austausch von Intimität" untersucht.
(§2) Den Männern wurde Oxytocin nasal als Spraystoß (1 Spraystoß Syntocinon® = 4 I.E. Oxytocin) und Estradiol dermal als Membranpflaster(2 mg Estradiol mit der Freisetzungsrate von ca. […]; Estraderm TTS® 25) verabreicht.
(§3) Den Frauen wurde Oxytocin nasal als Spraystoß (1 Spraystoß Syntocinon® = 4 I.E. Oxytocin) und Testosteron dermal als Membranpflaster (12,2 mg Testosteron mit einer Freisetzungsrate von ca. 0,1 mg/h; Androderm® 2,5 mg) verabreicht.
(§4) Die Verabreichung von Oxytocin erfolgte nasal und doppelblind (Placebo und Verum) in zwei Dosierungen, 1 Sprühstoß = 4 I.E. Oxytocin und zwei Sprühstöße = 8 I.E. Oxytocin, jeweils fortlaufend im Abstand von einer Stunde. Oxytocin wurde sowohl vor als auch nach der Anlage des Membranpflasters verabreicht. Insgesamt wurden 4 nasale Interventionen vor und nach der zusätzlichen Sexualhormongabe durchgeführt, wobei das Verum 2 mal in unterschiedlichen Dosierungen gegeben wurde. Die ersten nasalen Interventionen erfolgten nach 2 Stunden Wirkzeit der Sexualhormone. […]

The nature of experiment [2]: Double-blind study: subjective state descriptions by questionnaire. The following applies: 4 Probanden. The class given is in vivo. How it is done:
as §1, §2, §3, §4

Consider Oxytocin, for which the Kreuzkorrelationskoeffizient in experiment [1] is 0,51. For the same substance, the “subjektive Zustandsbeschreibungen (Selbstwahrnehmung)” value in experiment [2] was “stärker in Richtung Entspannung tendierte”.
